Reference: PubChem BioAssay (NCI)
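Dose response: 5 concentrations. Exposure: 48 h. Format: 96-well plates. Endpoint: linear interpolation; highest concentration if not reached. Abbreviation: GI50, concentration required for 50% inhibition of growth. Definition used: TGI = concentration required for complete inhibition of growth.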

test system: OVCAR-8 ovarian; experiment: NCI-60 cell line screen, 48 h

Compound | GI50 [µM] | TGI [µM]
CNCc1cccc2c1OCCOCCOCCN(C)S(=O)(=O)c1ccc(cc1)-c1cnc(N)c(n1)C(=O)N2 | 1.88 | 4.46
CN(C)c1ccc(/C=C(\NC(=O)c2ccccc2)C(=O)NC(CC(=O)O)C(=O)O)cc1 (centres undefined) | – | > 100
COC(=O)[C@]1(C)CCC[C@@]2(C)C1CC[C@]13C=C(C(C)C)[C@H](CC21)CC3(Cl)C#N (some centres undefined) | – | > 100
COC1OC(C)C(NC(=O)OCC(Cl)(Cl)Cl)C2OC(C)(C)OC12 (centres undefined) | – | > 100

test system: PC-3 prostate; experiment: NCI-60 cell line screen, 48 h

Compound | GI50 [µM] | TGI [µM]
CNCc1cccc2c1OCCOCCOCCN(C)S(=O)(=O)c1ccc(cc1)-c1cnc(N)c(n1)C(=O)N2 | 1.94 | 8.09
CN(C)c1ccc(/C=C(\NC(=O)c2ccccc2)C(=O)NC(CC(=O)O)C(=O)O)cc1 (centres undefined) | – | > 100
COC(=O)[C@]1(C)CCC[C@@]2(C)C1CC[C@]13C=C(C(C)C)[C@H](CC21)CC3(Cl)C#N (some centres undefined) | – | > 100
COc1ccc2c(c1)c(-c1nc(-c3c[nH]c4ncccc34)cs1)cn2CCCN1CCOCC1 | 2.48 | 8.68
COC1OC(C)C(NC(=O)OCC(Cl)(Cl)Cl)C2OC(C)(C)OC12 (centres undefined) | – | > 100

test system: RPMI-8226 leukemia; experiment: NCI-60 cell line screen, 48 h

Compound | GI50 [µM] | TGI [µM]
CNCc1cccc2c1OCCOCCOCCN(C)S(=O)(=O)c1ccc(cc1)-c1cnc(N)c(n1)C(=O)N2 | 4.39 | 31
CN(C)c1ccc(/C=C(\NC(=O)c2ccccc2)C(=O)NC(CC(=O)O)C(=O)O)cc1 (centres undefined) | – | > 100
COc1ccc2c(c1)c(-c1nc(-c3c[nH]c4ncccc34)cs1)cn2CCCN1CCOCC1 | 1.92 | 4.86
COC1OC(C)C(NC(=O)OCC(Cl)(Cl)Cl)C2OC(C)(C)OC12 (centres undefined) | – | > 100

test system: RXF 393 renal; experiment: NCI-60 cell line screen, 48 h

Compound | GI50 [µM] | TGI [µM]
CNCc1cccc2c1OCCOCCOCCN(C)S(=O)(=O)c1ccc(cc1)-c1cnc(N)c(n1)C(=O)N2 | 0.614 | 2.58
CN(C)c1ccc(/C=C(\NC(=O)c2ccccc2)C(=O)NC(CC(=O)O)C(=O)O)cc1 (centres undefined) | – | > 100
COC(=O)[C@]1(C)CCC[C@@]2(C)C1CC[C@]13C=C(C(C)C)[C@H](CC21)CC3(Cl)C#N (some centres undefined) | – | 97.5
COc1ccc2c(c1)c(-c1nc(-c3c[nH]c4ncccc34)cs1)cn2CCCN1CCOCC1 | 2.09 | 4.88
COC1OC(C)C(NC(=O)OCC(Cl)(Cl)Cl)C2OC(C)(C)OC12 (centres undefined) | – | > 100

test system: SF-268 CNS; experiment: NCI-60 cell line screen, 48 h

Compound | GI50 [µM] | TGI [µM]
CNCc1cccc2c1OCCOCCOCCN(C)S(=O)(=O)c1ccc(cc1)-c1cnc(N)c(n1)C(=O)N2 | 1.75 | 5.81
CN(C)c1ccc(/C=C(\NC(=O)c2ccccc2)C(=O)NC(CC(=O)O)C(=O)O)cc1 (centres undefined) | – | > 100
COC(=O)[C@]1(C)CCC[C@@]2(C)C1CC[C@]13C=C(C(C)C)[C@H](CC21)CC3(Cl)C#N (some centres undefined) | – | > 100
COc1ccc2c(c1)c(-c1nc(-c3c[nH]c4ncccc34)cs1)cn2CCCN1CCOCC1 | 2.69 | 10.3
COC1OC(C)C(NC(=O)OCC(Cl)(Cl)Cl)C2OC(C)(C)OC12 (centres undefined) | – | > 100

test system: SF-295 CNS; experiment: NCI-60 cell line screen, 48 h

Compound | GI50 [µM] | TGI [µM]
CNCc1cccc2c1OCCOCCOCCN(C)S(=O)(=O)c1ccc(cc1)-c1cnc(N)c(n1)C(=O)N2 | 3.35 | 13.3
CN(C)c1ccc(/C=C(\NC(=O)c2ccccc2)C(=O)NC(CC(=O)O)C(=O)O)cc1 (centres undefined) | – | > 100
COC(=O)[C@]1(C)CCC[C@@]2(C)C1CC[C@]13C=C(C(C)C)[C@H](CC21)CC3(Cl)C#N (some centres undefined) | – | > 100
COc1ccc2c(c1)c(-c1nc(-c3c[nH]c4ncccc34)cs1)cn2CCCN1CCOCC1 | 1.91 | 4.17
COC1OC(C)C(NC(=O)OCC(Cl)(Cl)Cl)C2OC(C)(C)OC12 (centres undefined) | – | > 100

test system: SF-539 CNS; experiment: NCI-60 cell line screen, 48 h

Compound | GI50 [µM] | TGI [µM]
CNCc1cccc2c1OCCOCCOCCN(C)S(=O)(=O)c1ccc(cc1)-c1cnc(N)c(n1)C(=O)N2 | 0.534 | 1.98
CN(C)c1ccc(/C=C(\NC(=O)c2ccccc2)C(=O)NC(CC(=O)O)C(=O)O)cc1 (centres undefined) | – | > 100
COC(=O)[C@]1(C)CCC[C@@]2(C)C1CC[C@]13C=C(C(C)C)[C@H](CC21)CC3(Cl)C#N (some centres undefined) | – | > 100
COc1ccc2c(c1)c(-c1nc(-c3c[nH]c4ncccc34)cs1)cn2CCCN1CCOCC1 | 1.74 | 3.67
COC1OC(C)C(NC(=O)OCC(Cl)(Cl)Cl)C2OC(C)(C)OC12 (centres undefined) | – | > 100

test system: SK-MEL-2 melanoma; experiment: NCI-60 cell line screen, 48 h

Compound | GI50 [µM] | TGI [µM]
CNCc1cccc2c1OCCOCCOCCN(C)S(=O)(=O)c1ccc(cc1)-c1cnc(N)c(n1)C(=O)N2 | 1.42 | 4.27
CN(C)c1ccc(/C=C(\NC(=O)c2ccccc2)C(=O)NC(CC(=O)O)C(=O)O)cc1 (centres undefined) | – | > 100
